# Patent US11299760B2 (Amgen Inc., priority 2013, dated 2022)
# Columns and labels:
# Assay type in all cases: cell-based, Chinese hamster
# [1] = tested on: recombinant CHO cell line producing an antibody (MAb A); assay: six day batch assay, cell culture parameters (VCD, viability, titer); settings: for Titer / VCD / Viability: day 6
# Method: Cells were centrifuged at 1500 rpm for five minutes and seeded at 2×10^6 cells per ml into batch production medium in a 24 deep-well plate at a final volume of 3 ml.
# Cell density and viability were measured by Guava easyCyte flow cytometer (Milipore, Billerica, Mass.) with the ViaCount application. Cultures were spun down, supernatants were filtered on 0.4 micron filters, and were analyzed for titer and glycan distribution.
# Antibody titer was measured by loading filtered cell culture supernatants over a POROS A/20 Protein A column (Applied Biosystems, Carlsbad, Calif.) equilibrated with 20 mM Tris, […], pH 7.0 buffer. Antibody elution was performed with 220 mM acetic acid, […], pH 2.6 buffer at a mobile phase flow rate of 4.0 ml/min. Eluted antibody was detected at a wavelength of 280 nm. Antibody concentration was determined based on a standard curve with a reference antibody standard. For high molecular weight measurement, antibodies were purified from spent medium supernatants on ATOLL columns (ATOLL-Bio Inc USA, Lawrance, Kans.) and were then analyzed using size exclusion chromatography.
# Cell culture performance was assessed via viable cell density (VCD), viability and titer measurements of harvested samples. Each bar represents an average result for duplicate cell culture samples. Each value is an average of duplicates.
# Cells producing MAb D [2] = assay: mock perfusion assay, cell culture parameters; settings: for CVCD / Cumulative Titer / End of Production Viability / qP: MAb D
# Method: (§1) Mock perfusion assay is a small scale, plate-based assay that is designed to mimic perfusion conditions in bioreactors through daily medium exchanges. For a 10-day mock perfusion assay, passaging cultures of various production cell lines were diluted 1:5 into chemically defined base perfusion medium in a 24 deep-well plate at a final volume of 3 ml per well. Mock perfusion was initiated on day 3 when the cells were spun down at 1000 rpm for 5 minutes and 25% of each spent culture medium was exchanged with the equivalent volume of fresh perfusion media. Subsequent medium exchange percentages were 40% on days 4-8 and 50% on day 9. Exchanged supernatants were stored at 4° C. prior to analysis.
# (§2) Analysis of cell culture parameters was also started on day 3; viable cell density and viability were analyzed using the ViaCount Guava assay as previously described. Glucose was measured daily starting on day 3 and was maintained at 12 g/l. Stored supernatants were analyzed for antibody titer as described previously. Samples of supernatant fluid from days 6, 8 and 10 were also analyzed for the presence and type of glycans by HILIC analysis.
# (§3) The cell lines used included three production cell lines that are known to generate mAbs with low high mannose glycans (MAb A, MAb B and MAb C) and one production cell line that consistently produces product with high levels of high mannose glycans (MAb D). […] Equivalent volumes of methanol were added daily to control cultures (columns 1 and 2 of the 24-well plate). This scheme is depicted below:
# Viable cell density (VCD) and viability were measured daily starting on day 3. Spent medium samples were collected on days 3-10 and were subjected to titer analysis. Viable cell densities were used to calculate cumulative viable cell densities, which were along with cumulative titer values used to calculate specific productivities (qP). Every value shown is an average of duplicates.
# Cells producing MAb D [3] = assay: mock perfusion assay, glycan analysis; settings: for Man5 / Man6 / Man7 / Man8a / Man8b / Man9: day 10
# Method: as §1, §2, §3
# (§4) Total high mannose values (Total HM column) and the corresponding distributions into high mannose species from Man5 through Man9 were determined for purified antibody samples collected on day 10. Each value shown in Table 4 represents an average of duplicates.
# Cells producing MAb B = assay: mock perfusion assay, glycan analysis; settings: for Man5 / Man6 / Man7 / Man8a / Man8b / Man9: day 10
# Method: as §1, §2, §3, §4
# Cells producing MAb A = assay: mock perfusion assay, glycan analysis; settings: for Man5 / Man6 / Man7 / Man8a / Man8b / Man9: day 10
# Method: as §1, §2, §3, §4
# [4] = increasing monensin (to 100 nM)
# [5] = constant monensin 25 nM from day 3, Day 6
# [6] = constant monensin 25 nM from day 3, Day 8
# [7] = constant monensin 25 nM from day 3, Day 10
# [8] = increasing monensin (25 nM day 4, 50 nM days 5-6, 100 nM days 7-9), Day 6
# [9] = increasing monensin (25 nM day 4, 50 nM days 5-6, 100 nM days 7-9), Day 8
# [10] = increasing monensin (25 nM day 4, 50 nM days 5-6, 100 nM days 7-9), Day 10
smiles,measurement,setting,value
CC[C@@]1([C@@H]2O[C@@H]([C@H]3O[C@@](O)(CO)[C@H](C)C[C@@H]3C)C[C@@H]2C)CC[C@H]([C@]2(C)CC[C@]3(C[C@H](O)[C@@H](C)[C@@H]([C@@H](C)[C@@H](OC)[C@H](C)C(=O)O)O3)O2)O1 [monensin],Titer,[1]; 0.1 nM monensin added day 1,3.835 g/L
same,VCD,[1]; 0.1 nM monensin added day 1,10 10^6c/ml
same,Viability,[1]; 0.1 nM monensin added day 1,81%
same,Titer,[1]; 0.5 nM monensin added day 1,4.415 g/L
same,VCD,[1]; 0.5 nM monensin added day 1,11 10^6c/ml
same,Viability,[1]; 0.5 nM monensin added day 1,81%
same,Titer,[1]; 1 nM monensin added day 1,4.265 g/L
same,VCD,[1]; 1 nM monensin added day 1,11 10^6c/ml
same,Viability,[1]; 1 nM monensin added day 1,82%
same,Titer,[1]; 5 nM monensin added day 1,3.45 g/L
same,VCD,[1]; 5 nM monensin added day 1,11 10^6c/ml
same,Viability,[1]; 5 nM monensin added day 1,82%
same,Titer,[1]; 10 nM monensin added day 1,3.635 g/L
same,VCD,[1]; 10 nM monensin added day 1,11 10^6c/ml
same,Viability,[1]; 10 nM monensin added day 1,81%
same,impact on cell culture parameters,[1]; 25 nM bolus on day 0 or 200 nM or 100 nM bolus on day 3,no negative impact on cell culture parameters
same,Titer,[1]; 25 nM monensin added day 1,5.22 g/L
same,VCD,[1]; 25 nM monensin added day 1,11 10^6c/ml
same,Viability,[1]; 25 nM monensin added day 1,85%
same,Titer,[1]; 50 nM monensin added day 1,2.025 g/L
same,VCD,[1]; 50 nM monensin added day 1,5 10^6c/ml
same,Viability,[1]; 50 nM monensin added day 1,72%
same,Titer,[1]; 100 nM monensin added day 3,3.515 g/L
same,VCD,[1]; 100 nM monensin added day 3,11 10^6c/ml
same,Viability,[1]; 100 nM monensin added day 3,86%
same,Titer,[1]; 200 nM monensin added day 3,4.43 g/L
same,VCD,[1]; 200 nM monensin added day 3,11 10^6c/ml
same,Viability,[1]; 200 nM monensin added day 3,87%
same,Titer,[1]; 500 nM monensin added day 3,3.055 g/L
same,VCD,[1]; 500 nM monensin added day 3,5 10^6c/ml
same,Viability,[1]; 500 nM monensin added day 3,41%
same,effect on cell growth,"Cells producing MAb D [2]; MAb D cells, mock perfusion","similar, though not as pronounced, negative growth impact"
same,effect on titer and specific productivity,"Cells producing MAb D [2]; MAb D cells, mock perfusion",slightly decreased the titer of MAb D cells but had no effect on specific productivity
same,CVCD,Cells producing MAb D [2]; constant monensin 25 nM,104 10^6 c-day/ml
same,Cumulative Titer,Cells producing MAb D [2]; constant monensin 25 nM,4.5 g/L
same,End of Production Viability,Cells producing MAb D [2]; constant monensin 25 nM,68%
same,qP,Cells producing MAb D [2]; constant monensin 25 nM,43 pg/c/d
same,CVCD,Cells producing MAb D [2]; [4],89 10^6 c-day/ml
same,Cumulative Titer,Cells producing MAb D [2]; [4],3.6 g/L
same,End of Production Viability,Cells producing MAb D [2]; [4],53%
same,qP,Cells producing MAb D [2]; [4],41 pg/c/d
same,Total HM,Cells producing MAb D [3]; [5],70.6%
same,Total HM,Cells producing MAb D [3]; [6],80.1%
same,Total HM,Cells producing MAb D [3]; [7],72.6%
same,Man5,Cells producing MAb D [3]; constant monensin 25 nM,30.4%
same,Man6,Cells producing MAb D [3]; constant monensin 25 nM,14.7%
same,Man7,Cells producing MAb D [3]; constant monensin 25 nM,15.3%
same,Man8a,Cells producing MAb D [3]; constant monensin 25 nM,0.7%
same,Man8b,Cells producing MAb D [3]; constant monensin 25 nM,10.1%
same,Man9,Cells producing MAb D [3]; constant monensin 25 nM,1.4%
same,high mannose species upregulated,Cells producing MAb D [3]; increasing dose of monensin,primarily upregulated Man7 and Man8(b) high mannose glycans
same,Total HM,Cells producing MAb D [3]; [8],83.0%
same,Total HM,Cells producing MAb D [3]; [9],92.5%
same,Total HM,Cells producing MAb D [3]; [10],94.9%
same,Man5,Cells producing MAb D [3]; [4],12.8%
same,Man6,Cells producing MAb D [3]; [4],14.9%
same,Man7,Cells producing MAb D [3]; [4],27.2%
same,Man8a,Cells producing MAb D [3]; [4],0.8%
same,Man8b,Cells producing MAb D [3]; [4],34.3%
same,Man9,Cells producing MAb D [3]; [4],5.0%
same,Total HM,Cells producing MAb B; [5],9.6%
same,Total HM,Cells producing MAb B; [6],4.6%
same,Total HM,Cells producing MAb B; [7],4.0%
same,Man5,Cells producing MAb B; constant monensin 25 nM,2.2%
same,Man6,Cells producing MAb B; constant monensin 25 nM,0.7%
same,Man7,Cells producing MAb B; constant monensin 25 nM,0.5%
same,Man8a,Cells producing MAb B; constant monensin 25 nM,0.3%
same,Man8b,Cells producing MAb B; constant monensin 25 nM,0.3%
same,Man9,Cells producing MAb B; constant monensin 25 nM,0.0%
same,Total HM,Cells producing MAb B; [8],13.2%
same,Total HM,Cells producing MAb B; [9],12.4%
same,Total HM,Cells producing MAb B; [10],14.0%
same,Man5,Cells producing MAb B; [4],7.7%
same,Man6,Cells producing MAb B; [4],3.0%
same,Man7,Cells producing MAb B; [4],2.0%
same,Man8a,Cells producing MAb B; [4],0.3%
same,Man8b,Cells producing MAb B; [4],0.9%
same,Man9,Cells producing MAb B; [4],0.1%
same,Total HM,Cells producing MAb A; [5],55.7%
same,Total HM,Cells producing MAb A; [6],19.7%
same,Total HM,Cells producing MAb A; [7],9%
same,Man5,Cells producing MAb A; constant monensin 25 nM,5.6%
same,Man6,Cells producing MAb A; constant monensin 25 nM,1.2%
same,Man7,Cells producing MAb A; constant monensin 25 nM,1.0%
same,Man8a,Cells producing MAb A; constant monensin 25 nM,0.4%
same,Man8b,Cells producing MAb A; constant monensin 25 nM,0.6%
same,Man9,Cells producing MAb A; constant monensin 25 nM,0.2%
same,Total HM,"Cells producing MAb A; increasing monensin (25 nM day 4, 50 nM days 5-9), Day 6",61.9%
same,Total HM,"Cells producing MAb A; increasing monensin (25 nM day 4, 50 nM days 5-9), Day 8",44.9%
same,Total HM,"Cells producing MAb A; increasing monensin (25 nM day 4, 50 nM days 5-9), Day 10",23.2%
same,Man5,Cells producing MAb A; increasing monensin (to 50 nM),14.2%
same,Man6,Cells producing MAb A; increasing monensin (to 50 nM),3.7%
same,Man7,Cells producing MAb A; increasing monensin (to 50 nM),1.9%
same,Man8a,Cells producing MAb A; increasing monensin (to 50 nM),0.6%
same,Man8b,Cells producing MAb A; increasing monensin (to 50 nM),1.4%
same,Man9,Cells producing MAb A; increasing monensin (to 50 nM),0.4%
